For series [1], the system named is 184B5 (non-malignant mammary epithelium). Put plainly: MTT viability assay, 184B5. Type of series: cell-based. The note with it: 184B5 non-malignant, 72 h, MTT; for CC50: read-out: LC50 (the source's name).
In the next series the test system is MCF7 cells. Put plainly: Caspase and autophagy inhibitors assay (Z-VAD-FMK, wortmannin; TUNEL). Type of series: cell-based. Particulars: MCF7, 50 μM Z-VAD-FMK 1 h pre-incubation, compound 5 25 μM or compound 15 30 μM, 48 h. The method, then: Se compounds induce different types of cell death, among which apoptosis and autophagy are the most common. To further elucidate the pathway through which compounds 5 and 15 trigger cell death, we used Z-VAD-FMK, a pan-caspase inhibitor and wortmannin, a PI3K inhibitor which blocks autophagy. MCF7 cells were pre-incubated for 1 h with 50 μM of Z-VAD-FMK or 100 nM wortmannin and co-incubated with compound 5 (25 μM), compound 15 (30 μM) or vehicle (control) for 48 h. Treated cells without inhibitors were also included.
2 × 10^6 MCF7 cells were seeded in 25 cm^2 flasks. After 24 h, cells were pre-treated with 50 μM of the pan-caspase inhibitor Z-VAD-FMK (BD Pharmingen) or 100 nM wortmannin (Santa Cruz Biotechnology, Heidelberg, Germany) for 1 h before co-incubating them with 25 μM of compound 5, 30 μM of compound 15 or vehicle (maximum amount of DMSO used in the treatments) for 48 h. Cells were collected and processed with the Apo-Direct kit as described previously.
Figure 6 Cell death induced by compounds 5 and 15 involves the caspases pathway. MCF7 cells were pre-incubated with 50 μM of Z-VAD-FMK or 100 nM wortmannin for 1 h before treating cells with compound 5 (25 μM), compound 15 (30 μM) or vehicle (control) for 48 h. Cells were stained with the Apo-Direct kit (TUNEL assay) and analyzed by flow cytometry. […]

Series [2] relates to thioredoxin reductase (TrxR1). As to the kind of experiment: Thioredoxin reductase activity assay (NADPH consumption). The note with it: 100 nM TrxR1, 227 μM NADPH, TE buffer pH 8, 45 min. Type of series: biochemical. The method, then: The assay was performed as previously described, but in a final volume of 200 μL in a 96-well plate. Reaction started after addition of 133 μL of TE buffer (20 mM Tris, 2 mM EDTA, pH = 8), 0.227 mM NADPH (freshly prepared) to different concentrations of compounds solved in DMSO and TrxR1 (final concentration 100 nM). NADPH consumption was followed measuring absorbance decrease at 340 nm in a VersaMax microplate reader (Molecular Devices, Sunnyvale, CA, USA) over 45 min. A background sample with DMSO without the compounds was included and subtracted from the values.
(§1) Figure 7 Compounds 5 and 15 are substrates for thioredoxin reductase but not for the glutathione-glutaredoxin system. (A) NADPH consumption indicating reduction of compounds 5, 15 or MSA as control by thioredoxin reductase. The reaction mixture contained 100 nM TrxR1, 227 μM NADPH and the corresponding amount of compound in TE buffer (20 mM Tris, 2 mM EDTA pH = 8); (B) NADPH consumption indicating reduction of MSA by glutathione in the presence or absence of glutaredoxin. The reaction mixture contained the corresponding amount of compound, 0.1 M Tris, 2 mM EDTA pH = 8, 0.1 mg/mL BSA, 1 mM GSH, 200 μM NADPH, 0.008 OD/mL yeast GR and 1 μM hGrx1 when required. Only results for MSA are shown, as compounds 5 and 15 were not reduced.

Series [3] has as its system glutathione-glutaredoxin (GSH-Grx) system. Put plainly: Glutaredoxin/glutathione assay (NADPH consumption). The class given is biochemical. The note with it: 1 mM GSH, 200 μM NADPH, yeast GR, 1 μM hGrx1 when required, 45 min. The method, then: The assay was performed as previously described, with minor modifications and adapted for a 96-well plate. A mixture of 0.1 M Tris pH 8, 2 mM EDTA pH = 8, 0.1 mg/mL BSA, 1 mM GSH, 200 μM NADPH, and 0.008 OD/mL yeast GR was prepared (all reagents were purchased from Sigma-Aldrich). Reactions were performed with 1 μM hGrx1 (IMCO Corporation, Stockholm, Sweden) when corresponding and different concentrations of the compounds. A 100 μL mixture was added, and the final volume was adjusted to 110 μL per well. Consumption of NADPH was monitored at A340 on a VersaMax microplate reader (Molecular Devices) for 45 min.
as §1

“Methyl 3-chlorothiophen-2-carboselenoate [Compound 5]”: in series [1], the GI50 turned out to be 3.5 ± 0.4 µM, the concentration for total growth inhibition (TGI) amounted to 5.9 ± 0.3 µM and the CC50 worked out at 8.3 ± 0.2 µM. For the same substance, the “decrease of cell death in the presence of the pan-caspase inhibitor Z-VAD-FMK” value in the series on MCF7 cells amounted to 36%. For the same substance, the “reduction by TrxR1 (NADPH consumption)” value in series [2] is given as “substrates only for TrxR1”. Besides, the “reduction by GSH in the presence or absence of glutaredoxin (NADPH consumption)” value in series [3] is “not reduced”.
With “Dimethyl 2,5-furandicarboselenoate [Compound 15]”, in series [1], growth was halved (GI50) at 3.5 ± 1.1 µM, the TGI worked out at 6.4 ± 0.5 µM and the CC50 is 9.2 ± 0.9 µM. For the same substance, the “decrease of cell death in the presence of the pan-caspase inhibitor Z-VAD-FMK” value in the series with MCF7 cells worked out at 14%. The “reduction by TrxR1 (NADPH consumption)” value in series [2] is given as “substrates only for TrxR1”. Further, the “reduction by GSH in the presence or absence of glutaredoxin (NADPH consumption)” value in series [3] is recorded as “not reduced”.

The values are drawn from article PMC6152192, “Novel Methylselenoesters as Antiproliferative Agents” (Molecules : A Journal of Synthetic Chemistry and Natural …, 2017).
